According to ChEMBL document CHEMBL3046327, “Nicotinic acid hydrazones: a novel anticonvulsant pharmacophore” (Med Chem Res, 2011):
Calls of active or inactive are those of the source. The rule behind the calls is not given here.

Tests used:
Mus musculus [1] = assay: Neurotoxicity in Mus musculus C57B/6 (mouse) assessed motor impairment at 300 mg/kg, ip after 0.5 hr by rotarod test; assay type: toxicity, organism-based; design: dose 300 mg/kg, route intraperitoneal; conditions: in vivo
Mus musculus [2] = assay: Anticonvulsant activity in Mus musculus C57B/6 (mouse) assessed protection against subcutaneous pentylenetetrazole-induced seizures at 300 mg/kg, ip after 0.5 hr; assay type: functional, organism-based; design: dose 300 mg/kg
Mus musculus [3] = assay: Anticonvulsant activity in ip dosed Mus musculus C57B/6 (mouse) assessed protection against maximal electroshock-induced seizures after 0.5 hr; assay type: functional; conditions: C57B/6, ip, read-out: MED
Mus musculus [4] = assay: Anticonvulsant activity in ip dosed Mus musculus C57B/6 (mouse) assessed protection against 6 Hz psychomotor seizure after 0.25 hr by minimal clonic seizure test; assay type: functional; conditions: C57B/6, ip, read-out: MED
Mus musculus [5] = assay: Anticonvulsant activity in ip dosed Mus musculus C57B/6 (mouse) assessed protection against 6 Hz psychomotor seizure by minimal clonic seizure test; assay type: functional; conditions: C57B/6, ip
Mus musculus [6] = assay: Neurotoxicity in Mus musculus C57B/6 (mouse) assessed motor impairment at 300 mg/kg, ip after 4 hr by rotarod test; assay type: toxicity, organism-based; design: dose 300 mg/kg, route intraperitoneal; conditions: in vivo
[7] = Neurotoxicity in ip dosed Mus musculus C57B/6 (mouse) assessed motor impairment by rotarod test; assay type: toxicity, organism-based; conditions: in vivo
Mus musculus [8] = assay: Anticonvulsant activity in Mus musculus C57B/6 (mouse) assessed protection against subcutaneous pentylenetetrazole-induced seizures at 300 mg/kg, ip after 4 hr; assay type: functional, organism-based; design: dose 300 mg/kg
Mus musculus [9] = assay: Anticonvulsant activity in ip dosed Mus musculus C57B/6 (mouse) assessed protection against 6 Hz psychomotor seizure after 0.5 hr by minimal clonic seizure test; assay type: functional; conditions: C57B/6, ip, read-out: MED
Mus musculus [10] = organism: Mus musculus; assay: Protective index, ratio of TD50 for Mus musculus C57B/6 (mouse) to ED50 for Mus musculus C57B/6 (mouse) assessed protection against 6 Hz psychomotor seizure by minimal clonic seizure test; assay type: functional
Mus musculus [11] = assay: Anticonvulsant activity in Mus musculus C57B/6 (mouse) assessed protection against maximal electroshock-induced seizures at 300 mg/kg, ip after 4 hr; assay type: functional, organism-based; design: dose 300 mg/kg
Mus musculus [12] = assay: Anticonvulsant activity in Mus musculus C57B/6 (mouse) assessed protection against maximal electroshock-induced seizures at 300 mg/kg, ip after 0.5 hr; assay type: functional, organism-based; design: dose 300 mg/kg
Mus musculus [13] = assay: Neurotoxicity in ip dosed Mus musculus C57B/6 (mouse) assessed motor impairment after 0.5 hr by rotarod test; assay type: toxicity, organism-based; conditions: in vivo
Mus musculus [14] = assay: Anticonvulsant activity in ip dosed Mus musculus C57B/6 (mouse) assessed protection against maximal electroshock-induced seizures after 4 hr; assay type: functional; conditions: C57B/6, ip, read-out: MED
Mus musculus [15] = assay: Neurotoxicity in ip dosed Mus musculus C57B/6 (mouse) assessed motor impairment after 4 hr by rotarod test; assay type: toxicity, organism-based; conditions: in vivo
[16] = Neurotoxicity in po dosed Rattus norvegicus Sprague-Dawley (rat) assessed motor impairment by rotarod test; assay type: toxicity, organism-based; conditions: in vivo
Rattus norvegicus [17] = assay: Anticonvulsant activity in po dosed Rattus norvegicus Sprague-Dawley (rat) assessed protection against 6 Hz psychomotor seizure by minimal clonic seizure test; assay type: functional
Rattus norvegicus [18] = organism: Rattus norvegicus; assay: Protective index, ratio of TD50 for Rattus norvegicus Sprague-Dawley (rat) to ED50 for Rattus norvegicus Sprague-Dawley (rat) assessed protection against 6 Hz psychomotor seizure by minimal clonic seizure test; assay type: functional

SMILES	Activity (Mus musculus [1])	Activity (Mus musculus [2])	minimal effective dose (Mus musculus [3]) [mg/kg]	minimal effective dose (Mus musculus [4]) [mg/kg]	ED50 (Mus musculus [5]) [mg/kg]	Activity (Mus musculus [6])	TD50 [7] [mg/kg]	Activity (Mus musculus [8])	minimal effective dose (Mus musculus [9]) [mg/kg]	Ratio TD50/ED50 (Mus musculus [10])	Activity (Mus musculus [11])	Activity (Mus musculus [12])	Activity (Mus musculus [13]) [mg/kg]	minimal effective dose (Mus musculus [14]) [mg/kg]	Activity (Mus musculus [15]) [mg/kg]	TD50 [16] [mg/kg]	ED50 (Rattus norvegicus [17]) [mg/kg]	Ratio TD50/ED50 (Rattus norvegicus [18])
O=C(N/N=C/c1cccc(Br)c1)c1cccnc1	Non-toxic	inactive	100	35	47.2	Non-toxic	> 520	inactive	35	>11	inactive							
O=C(N/N=C/c1cccc(Cl)c1)c1ccccc1	Non-toxic	inactive				Non-toxic		inactive			inactive	inactive						
O=C(N/N=C/c1cccc(Cl)c1)c1cccnc1	Non-toxic	inactive	300		80	Non-toxic	> 500	inactive	40	>6.25	inactive							
O=C1NC(=O)C(c2ccccc2)(c2ccccc2)N1 [PHENYTOIN]		inactive	30					inactive					100	30	100			
Cc1ccc(C(=O)N/N=C/c2ccc([N+](=O)[O-])cc2)cc1	Non-toxic	inactive				Non-toxic		inactive			inactive	inactive						
Cc1ccc(C(=O)N/N=C/c2cccc(Cl)c2)cc1	Non-toxic	inactive				Non-toxic		inactive				inactive		100				
O=C(N/N=C/c1ccccc1Br)c1ccncc1	Non-toxic	inactive				Non-toxic		inactive			inactive	inactive						
O=C(N/N=C/c1ccc(Cl)cc1)c1cccnc1	Non-toxic	inactive	100	12.5	16.1	Non-toxic	> 325	inactive	12.5	>20	inactive					> 320	31.4	>10
O=C(N/N=C/c1ccc(Cl)cc1)c1ccccc1	Non-toxic	inactive				Non-toxic		inactive			inactive	inactive						
O=C(N/N=C/c1ccc(O)cc1)c1ccccc1	Non-toxic	inactive				Non-toxic		inactive			inactive	inactive						
O=C(N/N=C/c1ccccc1F)c1ccncc1	Non-toxic	inactive				Non-toxic		inactive			inactive	inactive						
Cc1ccc(C(=O)N/N=C/c2cccc(Br)c2)cc1	Non-toxic	inactive				Non-toxic		inactive			inactive	inactive						
O=C(N/N=C/c1cccc(Cl)c1)c1ccncc1 [N'-(3-CHLOROBENZYLIDENE)ISONICOTINOHYDRAZIDE]	Non-toxic	inactive	300			Non-toxic		inactive			inactive							
O=C(N/N=C/c1cccc(Br)c1)c1ccccc1	Non-toxic	inactive				Non-toxic		inactive			inactive	inactive						
O=C(N/N=C/c1ccccc1F)c1ccccc1	Non-toxic	inactive				Non-toxic		inactive			inactive	inactive						
O=C(N/N=C/c1ccccc1[N+](=O)[O-])c1ccncc1	Non-toxic	inactive				Non-toxic		inactive			inactive	inactive						
O=C(N/N=C/c1ccc([N+](=O)[O-])cc1)c1ccncc1 [N'-(4-NITROBENZYLIDENE)ISONICOTINOHYDRAZIDE]	Non-toxic	inactive				Non-toxic		inactive			inactive	inactive						
O=C(N/N=C/c1cccc(Br)c1)c1ccncc1	Non-toxic	inactive				Non-toxic		inactive			inactive	inactive						
O=C(N/N=C/c1ccc(O)cc1)c1cccnc1	Non-toxic	inactive				Non-toxic		inactive			inactive	inactive						
O=C(N/N=C/c1ccc(Cl)cc1)c1ccncc1		inactive	100					inactive					100	100	100			
Cc1ccc(C(=O)N/N=C/c2ccc(Cl)cc2)cc1	Non-toxic	inactive				Non-toxic		inactive			inactive	inactive						
